Among the data in patent US12435080B2, “sGC stimulators” (Tisento Therapeutics Inc., priority 2016, dated 2025) are concentration, Kp uu and EC50 values, retold here.

The nature of data set [1]: Rat cerebrospinal fluid (CSF) pharmacokinetic properties. It is filed as in vivo. To be noted: compounds in Table IA; for concentration at 1 h: CSF, male Sprague-Dawley rats, PO 10 mg/kg in PEG400, 1 h post-dosing, read-out: CSF Conc. (nM @ 1 h); for Kp uu at 1 h: male, Sprague-Dawley, CSF and plasma (unbound), unbound CSF/unbound plasma ratio, rats, PO 10 mg/kg. The method, then:
PK in rats was determined following oral dosing. For the oral (PO) experiments, a group of 6 male Sprague-Dawley rats with an indwelling catheter placed in the cisterna magna were used. The PO group was dosed with 3 or 10 mg/kg of a compound formulated as a solution in PEG400. PO doses were administered by oral gavage and delivered to the stomach using a syringe and gavage tube. Following oral dosage administration, the gavage tube was flushed with approximately 0.5 mL of water to ensure complete delivery of the full dose.
Plasma and CSF samples were collected as follows: samples of CSF and blood were collected at 1 hour and 2 hours post-dosing. CSF samples (0.05 mL) were collected through the intracisternal catheter. Blood samples (0.25 mL) were collected through retro-orbital sampling. These samples were kept on ice until processed for plasma. Blood samples were centrifuged at 3200 rpm for 5 minutes at approximately 5° C. within 1 hour of collection. Plasma was directly transferred to a 96-well plate tube (0.125 mL). Plug caps were placed on the tubes and the tubes frozen at approximately −70° C. and stored until analysis.
Plasma was collected and analyzed for the presence of compound.
The compound in question and the internal standard were extracted from plasma and CSF by precipitation. Samples were analyzed using liquid chromatography (LC) with tandem mass spectrometric detection (MS/MS) using electrospray ionization. The standard curve range was from 1 to 1000 ng/mL. Results of the compounds described herein in this assay are illustrated in Tables 4A (for compounds in Table IA) and 4B (for compounds in Table IB) below.
Kp,uu is defined as the concentration ratio of unbound drug in CSF to unbound drug in plasma. Unbound drug in plasma (or free plasma concentration) is calculated by multiplying the total plasma concentration by the unbound fraction as determined by plasma protein binding. The CSF concentration is then divided by the free plasma concentration to determine the Kp,uu. (See e.g., Di et al., J. Med. Chem., 56, 2-12 (2013))

The target of the next data set is T1, sGC enzyme (Homo sapiens, UniProt Q02108+Q02153).
T1 construct: incorporated into these cells detect cGMP formed by the compounds stimulating the sGC enzyme; host or cells: HEK293 cells stably expressing GloSensor 40F cGMP biosensor
T1 sequence (Q02153 1-619): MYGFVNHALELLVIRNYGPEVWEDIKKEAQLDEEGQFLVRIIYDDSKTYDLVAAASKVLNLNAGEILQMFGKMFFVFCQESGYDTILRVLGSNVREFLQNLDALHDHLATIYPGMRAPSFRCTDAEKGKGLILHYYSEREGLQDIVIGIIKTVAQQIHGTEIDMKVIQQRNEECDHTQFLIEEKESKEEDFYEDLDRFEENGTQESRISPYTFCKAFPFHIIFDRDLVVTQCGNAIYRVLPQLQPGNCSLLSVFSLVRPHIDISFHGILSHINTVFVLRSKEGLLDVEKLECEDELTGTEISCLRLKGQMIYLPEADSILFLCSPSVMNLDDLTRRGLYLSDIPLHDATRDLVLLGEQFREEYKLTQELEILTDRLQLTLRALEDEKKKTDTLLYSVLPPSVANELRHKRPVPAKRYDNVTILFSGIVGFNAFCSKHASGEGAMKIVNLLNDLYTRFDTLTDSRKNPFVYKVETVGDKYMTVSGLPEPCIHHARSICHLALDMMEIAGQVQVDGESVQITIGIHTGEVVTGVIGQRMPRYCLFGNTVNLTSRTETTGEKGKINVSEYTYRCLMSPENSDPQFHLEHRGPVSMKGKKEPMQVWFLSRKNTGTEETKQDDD
T1 sequence (Q02108 1-690): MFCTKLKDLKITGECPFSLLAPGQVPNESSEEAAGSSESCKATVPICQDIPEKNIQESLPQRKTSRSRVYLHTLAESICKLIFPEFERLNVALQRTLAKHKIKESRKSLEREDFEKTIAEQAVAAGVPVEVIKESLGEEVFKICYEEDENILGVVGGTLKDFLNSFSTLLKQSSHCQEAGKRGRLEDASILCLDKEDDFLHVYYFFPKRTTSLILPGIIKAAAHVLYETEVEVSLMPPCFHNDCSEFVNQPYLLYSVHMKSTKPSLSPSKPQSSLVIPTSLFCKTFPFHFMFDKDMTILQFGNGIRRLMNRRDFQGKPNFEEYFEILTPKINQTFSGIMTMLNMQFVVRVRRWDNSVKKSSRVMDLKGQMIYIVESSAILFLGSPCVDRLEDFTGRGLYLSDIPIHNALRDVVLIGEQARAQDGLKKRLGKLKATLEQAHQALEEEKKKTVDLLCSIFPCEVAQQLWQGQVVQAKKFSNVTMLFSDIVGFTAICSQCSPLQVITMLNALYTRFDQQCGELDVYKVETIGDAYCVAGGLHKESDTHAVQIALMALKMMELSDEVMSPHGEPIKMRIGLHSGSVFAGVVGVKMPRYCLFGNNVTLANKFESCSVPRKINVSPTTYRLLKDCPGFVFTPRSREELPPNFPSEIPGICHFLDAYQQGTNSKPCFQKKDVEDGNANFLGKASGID
Put plainly: cGMP GloSensor cell-based assay, 384-well format. The settings on record: HEK293 cells expressing GloSensor 40F cGMP; 10 μM DETA-NONOate; normalized to 30 μM Compound Y; compounds in Table IA; read-out: Glo-sensor AbsEC50. A digest of the protocol:
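HEK293 cells expressing GloSensor 40F cGMP luciferase biosensor, preloaded with 2 mM GloSensor substrate for 90 min at 25 °C. Endpoint luminescence read after 55 min compound incubation at room temperature.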

The structures appear in SMILES notation. Several values for one entry are separate records, joined by “and”; a condition that tells them apart may be missing. Equal values may be shown once.

In the case of `FC(F)(F)c1n[nH]c(-c2nn(CCC(F)(F)C(F)(F)F)c3ncccc23)n1` [Compound I-2, 1-(3,3,4,4,4-pentafluorobutyl)-3-(3-(trifluoromethyl)-1H-1,2,4-triazol-5-yl)-1H-pyrazolo[3,4-b]pyridine], in data set [1], the concentration at 1 h amounted to 16.6 nM and the Kp uu at 1 h amounted to 0.24. Also, on sGC enzyme, the EC50 was in the range of 100 to 1000 nM.
In the case of `FC(F)(F)c1n[nH]c(-c2nn(Cc3cncnc3)c3ncccc23)n1` [Compound I-4, 1-(Pyrimidin-5-ylmethyl)-3-(3-(trifluoromethyl)-1H-1,2,4-triazol-5-yl)-1H-pyrazolo[3,4-b]pyridine], in data set [1], the concentration at 1 h is 79.5 nM and the Kp uu at 1 h came out at 1.98. Further, the EC50 on sGC enzyme is less than 100 nM.
For the compound `Fc1ccccc1Cc1nn(-c2nc(C(F)(F)F)n[nH]2)c2cccnc12` [Compound I-31, 3-(2-Fluorobenzyl)-1-(3-(trifluoromethyl)-1H-1,2,4-triazol-5-yl)-1H-pyrazolo[4,3-b]pyridine], in data set [1], the concentration at 1 h came to 66.6 nM and the Kp uu at 1 h was 3.84. For the same compound, the EC50 at sGC enzyme lay within 100 to 1000 nM.
The matching figures for `N#Cc1n[nH]c(-c2nn(Cc3ccccc3F)c3ncccc23)n1` [Compound I-41]: 26.6 nM, 0.36 and less than 100 nM.
Consider `Fc1cccc(Cn2nc(-c3nc(C(F)(F)F)n[nH]3)c3cccnc32)c1F` [Compound I-48, 1-(2,3-Difluorobenzyl)-3-(3-(trifluoromethyl)-1H-1,2,4-triazol-5-yl)-1H-pyrazolo[3,4-b]pyridine], for which, in data set [1], the concentration at 1 h amounted to 41.6 nM and the Kp uu at 1 h was 2.52. The EC50 on sGC enzyme is 100 to 1000 nM and < 100 nM.
For `FC(F)(F)c1n[nH]c(-c2nn(Cc3ccccc3)c3ncccc23)n1` [Compound I-49, 1-Benzyl-3-(3-(trifluoromethyl)-1H-1,2,4-triazol-5-yl)-1H-pyrazolo[3,4-b]pyridine], in data set [1], the concentration at 1 h came to 172 nM and the Kp uu at 1 h worked out at 1.57. Besides, on sGC enzyme, the EC50 is less than 100 nM.
The matching figures for `Cc1ncc(Cn2nc(-c3nc(C(F)(F)F)n[nH]3)c3ccccc32)cn1` [Compound I-62, 1-((2-methylpyrimidin-5-yl)methyl)-3-(3-(trifluoromethyl)-1H-1,2,4-triazol-5-yl)-1H-indazole]: 83 nM, 0.62 and less than 100 nM.
With `OCc1n[nH]c(-c2nn(Cc3ccccc3F)c3ncccc23)n1` [Compound I-64, (5-(1-(2-fluorobenzyl)-1H-pyrazolo[3,4-b]pyridin-3-yl)-1H-1,2,4-triazol-3-yl)methanol], in data set [1], the concentration at 1 h worked out at 13.1 nM and the Kp uu at 1 h worked out at 0.54. In addition, on sGC enzyme, the EC50 is less than 100 nM.
On to `Fc1cccc(Cn2nc(-c3nc(Cl)n[nH]3)c3cccnc32)c1F` [Compound I-86, 3-(3-Chloro-1H-1,2,4-triazol-5-yl)-1-(2,3-difluorobenzyl)-1H-pyrazolo[3,4-b]pyridine], for which, in data set [1], the concentration at 1 h was found to be 31.5 nM and the Kp uu at 1 h turned out to be 2.41. The EC50 on sGC enzyme was less than 100 nM.
For `Fc1ccccc1Cn1nc(-c2nc(C3CC3(F)F)n[nH]2)c2cccnc21` (stereo not drawn) [Compound I-96, 3-(3-(2,2-Difluorocyclopropyl)-1H-1,2,4-triazol-5-yl)-1-(2-fluorobenzyl)-1H-pyrazolo[3,4-b]pyridine] the same measures were 21.5 nM, 1.54 and less than 100 nM.
For `Fc1ccccc1Cc1nn(-c2nc(C(F)F)n[nH]2)c2cccnc12` [Compound I-101, 1-(3-(Difluoromethyl)-1H-1,2,4-triazol-5-yl)-3-(2-fluorobenzyl)-1H-pyrazolo[4,3-b]pyridine] the same measures were 104 nM, 2.81 and less than 100 nM.
Regarding `Fc1cccc(Cc2nn(-c3nc(C(F)(F)F)n[nH]3)c3cccnc23)c1F` [Compound I-105, 3-(2,3-Difluorobenzyl)-1-(3-(trifluoromethyl)-1H-1,2,4-triazol-5-yl)-1H-pyrazolo[4,3-b]pyridine], in data set [1], the concentration at 1 h was determined as 17.4 nM and the Kp uu at 1 h amounted to 2.2. Also, the EC50 at sGC enzyme was less than 100 nM.
